The text below walks through data of patent publication US6703506B2, “Amino acid ester containing azole antifungals” (Janssen Pharmaceutica, N.V., priority 1997, dated 2004).

The nature of series [1]: Chemical stability (open glass jar, 40° C., 75% relative humidity). The series is classed as physicochemical. The following applies: 50 mg, after one week. As to the method: After one week, the amount of test compound remaining was determined.
Series [2] concerns Aspergillus fumigatus. The series is described as follows: Disseminated aspergillosis in guinea-pigs. The series is classed as in vivo. The following applies: for CFU/g (liver): culture-positive livers post mortem; for % neg (total percentage culture-negative deep tissues): liver, spleen, kidney, lung and brain. As to the method: (§1) Specific pathogen-free (SPF) guinea-pigs (weighing 400-500 g) were used in all experiments. A catheter was placed into the left jugular vein of the animals that were treated by intravenous infusion, the vein was ligated, and the catheter was connected to a microprocessor-controlled infusion pump. The animals were infected with Aspergillus fumigatus (4,000 CFU/g body weight) or with Candida albicans (40,000 CFU/g body weight) either via the lateral vein of the penis or via the implanted catheter. Intravenous treatments (5 mg/kg/day) began 1 hour after infection. The test formulations were then administered on subsequent days as two, 1 hour infusions daily, separated by a period of 5 hours, for a total of 19 infusions or 9.5 days. Oral treatments with the test compounds (5 mg/kg/day) begun 1 hour after infection and were repeated twice daily up to the tenth day after infection (a total of 19 treatments. For each group of tested animals (number of tested animals per group given in column “N”), the mean survival time (MST) in days was recorded as well as the % survivors (% surv). Animals of each group which died during the experiment and those that survived the experiment and were killed, were investigated for counts of Aspergillus fumigatus and Candida albicans in deep tissue (liver, spleen, kidney, lung and brain) post mortem. The remaining CFU/g in the culture-positive livers was measured and expressed in table 9 (after intravenous treatment) and table 10 (after oral treatment) as mean log10 CFU/g. The columns “%neg” in tables 9 and 10 express the total percentage culture-negative deep tissues after the treatment.

Series [3] concerns Candida albicans. Put plainly: Determination of fungal susceptibility (MIC). Format: cell-based. Particulars: CYG medium, 2 days at 37° C., growth to 35% of control or less. Here is the method:
(§2) A panel of Candida isolates plus single isolates of the dermatophytes Microsporum canis, Trichophyton rubrum and T. mentagrophytes; Aspergillus fumigates, and Cryptococcus neoformans were used to evaluate the activity of the test compounds in vitro. Inocula were prepared as broth cultures (yeasts) or as suspensions of fungal material made from agar slope cultures (moulds). The test compounds were pipetted from DMSO stock solution into water to provide a series of 10-fold dilutions. The fungal inocula were suspended in the growth medium CYG (F. C. Odds, Journal of Clinical Microbiology, 29, (2735-2740, 1991) at approximately 50,000 colony-forming units (CFU) per ml and added to the aqueous test drugs. The cultures were set up in the 96 wells of plastic microdilution plates and they were incubated for 2 days at 37° C. (Candida spp.) or for 5 days at 30° C. (other fungi). Growth in the microcultures was measured by their optical density (OD) measured at a wavelength of 405 nm. The OD for cultures with test compounds was calculated as a percentage of the control, drug-free OD. Inhibition of growth to 35% of control or less was recorded as significant inhibition.
(§3) Minimal inhibitory concentration (MICs; in 10^−6 M) of intermediate 2 as the major metabolite and some of the compounds of formula (I) for Candida glabrata, Candida krusel, Candida parapsilosis, Candida albicans, Candida kefyr, Candida tropicalis, Microsporum canis, Trichophyton rubrum, Trichophyton mentagrophytes, Cryptococcus neoformans, Aspergillus fumigatus are listed in table 8.

The next series deals with Candida glabrata. Put plainly: Determination of fungal susceptibility (MIC). The series is classed as cell-based. Particulars: CYG medium, 2 days at 37° C., growth to 35% of control or less. Here is the method:
as §2, §3

A further series has as its system Cryptococcus neoformans. Put plainly: Determination of fungal susceptibility (MIC). The series is classed as cell-based. Particulars: CYG medium, 5 days at 30° C., growth to 35% of control or less. As to the method:
as §2, §3

The test system of a further series is Candida parapsilosis. Put plainly: Determination of fungal susceptibility (MIC). Particulars: CYG medium, 2 days at 37° C., growth to 35% of control or less. Format: cell-based. As to the method:
as §2, §3

The subject of series [4] is Trichophyton mentagrophytes. The series is described as follows: Determination of fungal susceptibility (MIC). The series is classed as cell-based. Particulars: CYG medium, 5 days at 30° C., growth to 35% of control or less. As to the method:
as §2, §3

The test system of series [5] is Aspergillus fumigatus. Put plainly: Determination of fungal susceptibility (MIC). The series is classed as cell-based. Particulars: CYG medium, 5 days at 30° C., growth to 35% of control or less. Here is the method: as §2, §3
For the next series, the system named is Trichophyton rubrum. Put plainly: Determination of fungal susceptibility (MIC). The series is classed as cell-based. The following applies: CYG medium, 5 days at 30° C., growth to 35% of control or less. Here is the method:
as §2, §3

The next series deals with Candida krusei. The series is described as follows: Determination of fungal susceptibility (MIC). The series is classed as cell-based. Particulars: CYG medium, 2 days at 37° C., growth to 35% of control or less. As to the method: as §2, §3
Another series has as its system Candida kefyr. The series is described as follows: Determination of fungal susceptibility (MIC). The series is classed as cell-based. The following applies: CYG medium, 2 days at 37° C., growth to 35% of control or less. Here is the method: as §2, §3
A further series has as its system Candida tropicalis. Put plainly: Determination of fungal susceptibility (MIC). Format: cell-based. The following applies: CYG medium, 2 days at 37° C., growth to 35% of control or less. As to the method:
as §2, §3

A further series deals with Microsporum canis. Put plainly: Determination of fungal susceptibility (MIC). The series is classed as cell-based. The following applies: CYG medium, 5 days at 30° C., growth to 35% of control or less. As to the method:
as §2, §3

The subject of series [6] is Candida albicans. The series is described as follows: Disseminated candidosis in guinea-pigs. Format: in vivo. Particulars: for CFU/g (liver): culture-positive livers post mortem; for % neg (total percentage culture-negative deep tissues): liver, spleen, kidney, lung and brain. Here is the method: as §1
[7] abbreviates: i.v. treatment 5 mg/kg/day, 19 infusions, 9.5 days.
Setting [8] is: oral treatment 5 mg/kg/day, twice daily, 19 treatments.

In the case of `CC(N)C(=O)OC(C)C(C)n1ncn(-c2ccc(N3CCN(c4ccc(OCC5COC(Cn6cncn6)(c6ccc(F)cc6F)O5)cc4)CC3)cc2)c1=O.O.O=C(O)CCC(=O)O` (centres unmarked) [Compound 10], the “Stability (amount of test compound remaining)” value in series [1] worked out at 31.0%.

As to `CC(C)CC(N)C(=O)OC(C)C(C)n1ncn(-c2ccc(N3CCN(c4ccc(OCC5COC(Cn6cncn6)(c6ccc(F)cc6F)O5)cc4)CC3)cc2)c1=O` (centres unmarked) [Compound 21], the “CFU/g (liver)” value stood at 3.7 mean log10 CFU/g in the series on Aspergillus fumigatus [2] (i.v. treatment 5 mg/kg/day), 3.0 mean log10 CFU/g with Aspergillus fumigatus [2] (oral treatment 5 mg/kg/day), 2.7 mean log10 CFU/g in the series with Candida albicans [6] (i.v. treatment 5 mg/kg/day) and 0 mean log10 CFU/g in the series on Candida albicans [6] (oral treatment 5 mg/kg/day). Also, the “% surv (% survivors)” value in the series on Aspergillus fumigatus [2] (setting [7]) is 0%; with Aspergillus fumigatus [2] (setting [8]), 40%; in the series with Candida albicans [6] (setting [7]), 16.7%; with Candida albicans [6] (setting [8]) it was 90%. The “MST (mean survival time)” value was found to be 5.7 days in the series with Aspergillus fumigatus [2] (setting [7]), 7.0 days in the series with Aspergillus fumigatus [2] (setting [8]), 6.5 days in the series on Candida albicans [6] (setting [7]) and 9.6 days in the series with Candida albicans [6] (setting [8]). In addition, the “% neg (total percentage culture-negative deep tissues)” value in the series on Aspergillus fumigatus [2] (i.v. treatment 5 mg/kg/day) turned out to be 46%; with Aspergillus fumigatus [2] (oral treatment 5 mg/kg/day) it was 55%; in the series with Candida albicans [6] (i.v. treatment 5 mg/kg/day) it was 75%; in the series with Candida albicans [6] (oral treatment 5 mg/kg/day), 83%. Also, the MIC in the series on Candida albicans [3] is 0.1 10^−6 M; in the series with Candida glabrata it was 10 10^−6 M; against Cryptococcus neoformans it was 1 10^−6 M; in the series on Candida parapsilosis it was 0.1 10^−6 M; in series [4] it was 1 10^−6 M; against Aspergillus fumigatus [5], 1 10^−6 M. Moreover, the MIC against Trichophyton rubrum is given as <0.1 10^−6 M; with Candida krusei it was 1 10^−6 M; in the series on Candida kefyr it was 0.1 10^−6 M; with Candida tropicalis it was 0.1 10^−6 M; against Microsporum canis it was 1 10^−6 M. In series [1], the “Stability (amount of test compound remaining)” value worked out at 100.3%.

In the case of `C[C@H](OC(=O)CCN)[C@H](C)n1ncn(-c2ccc(N3CCN(c4ccc(OC[C@@H]5CO[C@@](Cn6cncn6)(c6ccc(F)cc6F)O5)cc4)CC3)cc2)c1=O.O.O=C(O)C[C@H](O)C(=O)O.O=C(O)C[C@H](O)C(=O)O` (relative stereo) [Compound 12, [2S-[2α,4α-[(R*,R*)]]]-2-[4-[4-[4-[4-[[2-(2,4-difluorophenyl)-2-(1H-1,2,4-triazol-1-ylmethyl)-1,3-dioxolan-4-yl]methoxy]phenyl]-1-piperazinyl]phenyl]-4,5-dihydro-5-oxo-1H-1,2,4-triazol-1-yl]-1-methylpropyl β-alanine (S)-hydroxybutanedioate(1:2) monohydrate], the “Stability (amount of test compound remaining)” value in [1] came out at 96.1%.

With `CC(OC(=O)CCN)C(C)n1ncn(-c2ccc(N3CCN(c4ccc(OCC5COC(Cn6cncn6)(c6ccc(F)cc6F)O5)cc4)CC3)cc2)c1=O.O.O=C(O)C(=O)O` (centres unmarked) [Compound 13], the “Stability (amount of test compound remaining)” value in [1] was 98.3%.

With `CCN(CC)CC(=O)OC(C)C(C)n1ncn(-c2ccc(N3CCN(c4ccc(OCC5COC(Cn6cncn6)(c6ccc(F)cc6F)O5)cc4)CC3)cc2)c1=O.O=C(O)C=CC(=O)O` (stereo not drawn) [Compound 16, [2S-[2α,4α-[(R*,R*)]]]-2-[4-[4-[4-[4-[[2-(2,4-difluorophenyl)-2-(1H-1,2,4-triazol-1-ylmethyl)-1,3-dioxolan-4-yl]methoxy]phenyl]-1-piperazinyl]phenyl]-4,5-dihydro-5-oxo-1H-1,2,4-triazol-1-yl]-1-methylpropyl N,N-diethylglycine (E)-2-butenedioate], the “CFU/g (liver)” value in the series with Aspergillus fumigatus [2] (i.v. treatment 5 mg/kg/day) is on record as 3.4 mean log10 CFU/g; in the series with Aspergillus fumigatus [2] (oral treatment 5 mg/kg/day), 3.1 mean log10 CFU/g; in the series on Candida albicans [6] (i.v. treatment 5 mg/kg/day), 0 mean log10 CFU/g; with Candida albicans [6] (oral treatment 5 mg/kg/day), 0 mean log10 CFU/g. Besides, the “% surv (% survivors)” value in the series with Aspergillus fumigatus [2] (setting [7]) was 16.7%; in the series on Aspergillus fumigatus [2] (setting [8]), 40%; in the series on Candida albicans [6] (setting [7]), 66.7%; with Candida albicans [6] (setting [8]) it was 90%. The “MST (mean survival time)” value in the series on Aspergillus fumigatus [2] (setting [7]) was 6.8 days; in the series on Aspergillus fumigatus [2] (setting [8]), 6.5 days; with Candida albicans [6] (setting [7]), 9.3 days; in the series with Candida albicans [6] (setting [8]) it was 9.6 days. In addition, the “% neg (total percentage culture-negative deep tissues)” value in the series with Aspergillus fumigatus [2] (i.v. treatment 5 mg/kg/day) came out at 29%; in the series on Aspergillus fumigatus [2] (oral treatment 5 mg/kg/day), 48%; in the series on Candida albicans [6] (i.v. treatment 5 mg/kg/day), 79%; in the series on Candida albicans [6] (oral treatment 5 mg/kg/day), 73%. Also, the MIC was <0.1 10^−6 M in the series with Candida albicans [3]; 10 10^−6 M in the series with Candida glabrata; 1 10^−6 M against Cryptococcus neoformans; <0.1 10^−6 M in the series with Candida parapsilosis; 1 10^−6 M in series [4]; 1 10^−6 M against Aspergillus fumigatus [5]. Moreover, the MIC against Trichophyton rubrum was <0.1 10^−6 M; in the series on Candida krusei, 1 10^−6 M; with Candida kefyr, <0.1 10^−6 M; in the series with Candida tropicalis it was <0.1 10^−6 M; with Microsporum canis it was 1 10^−6 M. For the same molecule, the “Stability (amount of test compound remaining)” value in [1] is 100.3%.

“[2S-[2α,4α[(R*,R*)]]]-4-[4-[4-[4-[[2-(2,4-difluorophenyl)-2-(1H-1,2,4-triazol-1-ylmethyl)-1,3-dioxolan-4-yl]methoxy]-phenyl]-1-piperazinyl]phenyl]-2,4-dihydro-2-(2-hydroxy-1-methylpropyl)-3H-1,2,4-triazol-3-one [Interm. 2a]”: the MIC against Candida albicans [3] was 10 10^−6 M; with Candida glabrata it was 10 10^−6 M; against Cryptococcus neoformans it was 1 10^−6 M; in the series with Candida parapsilosis, 1 10^−6 M; in series [4], 1 10^−6 M; against Aspergillus fumigatus [5], 1 10^−6 M. Further, the MIC against Trichophyton rubrum was 1 10^−6 M; in the series with Candida krusei it was 1 10^−6 M; in the series on Candida kefyr, <0.1 10^−6 M; against Candida tropicalis, 1 10^−6 M; against Microsporum canis, 1 10^−6 M.

For `CCN(CC)CCC(=O)OC(C)C(C)n1ncn(-c2ccc(N3CCN(c4ccc(OCC5COC(Cn6cncn6)(c6ccc(F)cc6F)O5)cc4)CC3)cc2)c1=O.O.O=C(O)C=CC(=O)O` (centres unmarked) [Compound 15], the “Stability (amount of test compound remaining)” value in series [1] is 90.4%.
